Source: the supplement of paper PMC12463676, “Small-molecule dissolution of stress granules by redox modulation benefits ALS models” (Nature Chemical Biology, 2025)

Legend:
potassium arsenate = compound: O=[As]([O-])(O)O.[K+] [potassium arsenate]; assay: thermal stability z-score vs DMSO; higher = more thermally stabilized by treatment; details: HeLa; arsenate concentration 1 mM
Protocol: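 Cellular thermal proteome profiling in HeLa cells treated with 1 mM arsenate for 1 h (DMSO pretreatment), heated to ten temperatures (37-66.3 °C). Soluble protein was quantified by TMT mass spectrometry relative to DMSO controls; the thermal stability score was transformed to a z-score; mean of n = 3 experiments.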

lipoamide = compound: NC(=O)CCCCC1CCSS1 [lipoamide]; assay: as above; details: HeLa, lipoamide concentration 100 µM
Protocol: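 Cellular thermal proteome profiling in HeLa cells. Cells were treated with 100 µM lipoamide for 1 h, with or without 1 mM arsenate for a further 1 h, then heated to ten temperatures (37-66.3 °C), and soluble protein was quantified by TMT mass spectrometry relative to 0.1% DMSO controls. The thermal stability score (sum of log2 fold changes minus the abundance score) was transformed to a z-score; mean of n = 3 experiments.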

[1] = arsenate co-treatment: 1 mM arsenate 1 h
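Note: each temperature applied for 3 min, abundance score taken as mean log2 fold change at the two lowest temperatures, z-score obtained by mean subtraction and division by SD.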

UniProt P30043, sequence (P30043 whole entry): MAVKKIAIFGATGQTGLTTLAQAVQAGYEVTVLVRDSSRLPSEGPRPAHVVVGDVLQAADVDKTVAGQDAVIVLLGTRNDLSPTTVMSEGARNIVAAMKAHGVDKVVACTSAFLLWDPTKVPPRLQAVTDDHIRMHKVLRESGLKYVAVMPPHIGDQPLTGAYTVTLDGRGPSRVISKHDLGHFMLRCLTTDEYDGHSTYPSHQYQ
UniProt Q8N0V5, sequence (Q8N0V5 whole entry): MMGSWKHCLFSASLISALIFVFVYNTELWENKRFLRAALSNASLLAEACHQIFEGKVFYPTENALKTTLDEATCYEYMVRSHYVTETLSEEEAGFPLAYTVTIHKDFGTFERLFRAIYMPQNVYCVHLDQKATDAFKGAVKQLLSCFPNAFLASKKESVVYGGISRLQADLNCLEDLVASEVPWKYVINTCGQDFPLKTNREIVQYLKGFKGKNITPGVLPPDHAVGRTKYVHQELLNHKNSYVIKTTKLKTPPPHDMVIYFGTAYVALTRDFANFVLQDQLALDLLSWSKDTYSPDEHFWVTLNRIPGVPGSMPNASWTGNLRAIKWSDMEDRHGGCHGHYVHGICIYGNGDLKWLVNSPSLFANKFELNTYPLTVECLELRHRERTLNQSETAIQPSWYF
UniProt Q9BTE3, sequence (Q9BTE3 whole entry): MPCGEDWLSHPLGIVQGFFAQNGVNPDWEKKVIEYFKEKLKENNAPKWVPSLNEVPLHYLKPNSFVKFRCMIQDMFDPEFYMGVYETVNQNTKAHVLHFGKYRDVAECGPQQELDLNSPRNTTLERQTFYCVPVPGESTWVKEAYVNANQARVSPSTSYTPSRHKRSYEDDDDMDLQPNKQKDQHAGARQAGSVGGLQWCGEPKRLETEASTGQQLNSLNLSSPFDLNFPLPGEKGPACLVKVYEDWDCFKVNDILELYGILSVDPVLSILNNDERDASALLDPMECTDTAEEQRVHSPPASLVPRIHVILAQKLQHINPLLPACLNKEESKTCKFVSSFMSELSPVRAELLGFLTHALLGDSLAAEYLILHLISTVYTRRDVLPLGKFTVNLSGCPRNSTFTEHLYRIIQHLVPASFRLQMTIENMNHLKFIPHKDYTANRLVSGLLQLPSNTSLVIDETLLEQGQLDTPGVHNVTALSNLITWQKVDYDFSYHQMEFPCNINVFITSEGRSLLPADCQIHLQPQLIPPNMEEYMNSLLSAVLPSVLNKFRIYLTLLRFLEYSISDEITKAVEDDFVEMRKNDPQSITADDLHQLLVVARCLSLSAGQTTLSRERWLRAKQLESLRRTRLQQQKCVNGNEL
UniProt Q9H2U2, sequence (Q9H2U2 whole entry): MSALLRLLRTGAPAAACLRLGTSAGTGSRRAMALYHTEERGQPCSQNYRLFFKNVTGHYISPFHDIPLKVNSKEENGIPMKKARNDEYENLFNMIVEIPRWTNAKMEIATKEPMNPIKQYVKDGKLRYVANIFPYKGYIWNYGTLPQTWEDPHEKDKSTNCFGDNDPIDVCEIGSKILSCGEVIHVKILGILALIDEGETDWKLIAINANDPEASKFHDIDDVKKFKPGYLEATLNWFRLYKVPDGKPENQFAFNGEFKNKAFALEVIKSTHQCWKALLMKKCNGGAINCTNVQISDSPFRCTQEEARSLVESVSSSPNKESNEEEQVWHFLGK
UniProt P49736, sequence (P49736 whole entry): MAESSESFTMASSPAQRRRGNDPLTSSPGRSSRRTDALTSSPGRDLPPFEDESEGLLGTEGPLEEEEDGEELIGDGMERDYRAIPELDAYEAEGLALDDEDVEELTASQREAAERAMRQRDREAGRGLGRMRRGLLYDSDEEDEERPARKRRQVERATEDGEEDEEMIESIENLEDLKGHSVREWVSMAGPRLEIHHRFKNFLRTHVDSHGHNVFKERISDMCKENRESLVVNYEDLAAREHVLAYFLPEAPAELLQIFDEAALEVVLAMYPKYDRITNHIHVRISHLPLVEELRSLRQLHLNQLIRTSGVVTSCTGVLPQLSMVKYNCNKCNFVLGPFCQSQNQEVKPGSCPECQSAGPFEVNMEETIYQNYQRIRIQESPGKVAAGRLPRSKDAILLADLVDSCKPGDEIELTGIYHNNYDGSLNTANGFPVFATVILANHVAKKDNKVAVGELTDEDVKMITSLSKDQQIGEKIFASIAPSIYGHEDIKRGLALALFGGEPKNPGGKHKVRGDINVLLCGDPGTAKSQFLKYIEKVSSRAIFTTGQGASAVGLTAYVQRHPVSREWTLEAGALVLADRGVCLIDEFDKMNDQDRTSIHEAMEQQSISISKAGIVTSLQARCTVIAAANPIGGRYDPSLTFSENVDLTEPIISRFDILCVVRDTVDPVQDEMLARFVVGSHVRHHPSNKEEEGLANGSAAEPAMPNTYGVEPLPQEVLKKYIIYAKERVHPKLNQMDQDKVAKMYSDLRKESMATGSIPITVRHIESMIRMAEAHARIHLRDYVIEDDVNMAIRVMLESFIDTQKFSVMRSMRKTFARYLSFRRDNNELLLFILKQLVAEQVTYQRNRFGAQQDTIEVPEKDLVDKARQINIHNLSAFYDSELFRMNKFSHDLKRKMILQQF
UniProt Q96JJ7, sequence (Q96JJ7 whole entry): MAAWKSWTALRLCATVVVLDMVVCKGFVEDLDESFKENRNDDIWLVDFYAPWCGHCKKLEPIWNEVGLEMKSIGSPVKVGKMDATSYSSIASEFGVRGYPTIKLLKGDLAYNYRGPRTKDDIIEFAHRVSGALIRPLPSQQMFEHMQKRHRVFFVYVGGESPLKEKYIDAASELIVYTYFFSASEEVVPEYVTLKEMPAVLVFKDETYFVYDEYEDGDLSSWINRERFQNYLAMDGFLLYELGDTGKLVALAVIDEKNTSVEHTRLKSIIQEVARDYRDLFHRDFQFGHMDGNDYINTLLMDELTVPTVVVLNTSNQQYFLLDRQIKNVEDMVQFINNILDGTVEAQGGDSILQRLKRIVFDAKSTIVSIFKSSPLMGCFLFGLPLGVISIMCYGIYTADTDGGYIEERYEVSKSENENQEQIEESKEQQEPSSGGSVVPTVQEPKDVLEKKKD
UniProt Q92539, sequence (Q92539 whole entry): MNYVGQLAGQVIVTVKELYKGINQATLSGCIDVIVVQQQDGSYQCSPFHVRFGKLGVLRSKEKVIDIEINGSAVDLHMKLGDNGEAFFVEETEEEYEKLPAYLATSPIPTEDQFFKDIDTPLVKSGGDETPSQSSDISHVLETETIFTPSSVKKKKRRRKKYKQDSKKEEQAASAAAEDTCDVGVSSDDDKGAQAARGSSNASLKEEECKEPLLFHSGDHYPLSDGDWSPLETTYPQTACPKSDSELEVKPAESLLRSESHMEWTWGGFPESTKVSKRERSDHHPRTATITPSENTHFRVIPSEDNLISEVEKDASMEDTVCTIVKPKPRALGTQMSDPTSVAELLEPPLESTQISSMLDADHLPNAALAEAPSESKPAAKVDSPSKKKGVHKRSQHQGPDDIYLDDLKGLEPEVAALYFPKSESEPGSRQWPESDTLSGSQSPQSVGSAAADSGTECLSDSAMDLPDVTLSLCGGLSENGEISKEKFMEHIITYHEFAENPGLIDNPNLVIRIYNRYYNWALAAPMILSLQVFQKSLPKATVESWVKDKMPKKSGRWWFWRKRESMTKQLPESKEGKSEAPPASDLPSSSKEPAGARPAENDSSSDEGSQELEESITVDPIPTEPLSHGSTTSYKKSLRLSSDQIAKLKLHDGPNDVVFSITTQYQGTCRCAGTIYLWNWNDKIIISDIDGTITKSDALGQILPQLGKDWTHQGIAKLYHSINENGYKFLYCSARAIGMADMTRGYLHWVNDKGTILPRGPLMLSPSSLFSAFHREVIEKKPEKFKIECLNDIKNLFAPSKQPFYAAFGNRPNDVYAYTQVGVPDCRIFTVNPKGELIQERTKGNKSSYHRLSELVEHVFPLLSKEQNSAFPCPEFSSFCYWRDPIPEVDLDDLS
UniProt P13667, sequence (P13667 whole entry): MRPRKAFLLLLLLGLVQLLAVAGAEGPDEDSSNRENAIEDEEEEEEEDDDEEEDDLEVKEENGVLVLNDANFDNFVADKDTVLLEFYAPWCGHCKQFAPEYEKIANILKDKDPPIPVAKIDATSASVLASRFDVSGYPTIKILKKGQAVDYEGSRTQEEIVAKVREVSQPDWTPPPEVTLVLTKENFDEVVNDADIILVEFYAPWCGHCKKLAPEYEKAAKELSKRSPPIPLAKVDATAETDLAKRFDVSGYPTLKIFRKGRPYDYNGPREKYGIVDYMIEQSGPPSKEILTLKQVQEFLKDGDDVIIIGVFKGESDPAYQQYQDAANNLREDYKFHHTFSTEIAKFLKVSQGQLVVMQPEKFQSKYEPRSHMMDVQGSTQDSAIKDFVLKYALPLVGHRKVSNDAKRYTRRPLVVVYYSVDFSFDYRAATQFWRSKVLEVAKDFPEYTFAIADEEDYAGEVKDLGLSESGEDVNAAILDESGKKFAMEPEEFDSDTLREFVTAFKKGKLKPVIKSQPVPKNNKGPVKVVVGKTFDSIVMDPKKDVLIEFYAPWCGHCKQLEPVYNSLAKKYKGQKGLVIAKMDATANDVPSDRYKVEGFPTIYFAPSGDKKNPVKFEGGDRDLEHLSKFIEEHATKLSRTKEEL
UniProt Q5VUM1, sequence (Q5VUM1 whole entry): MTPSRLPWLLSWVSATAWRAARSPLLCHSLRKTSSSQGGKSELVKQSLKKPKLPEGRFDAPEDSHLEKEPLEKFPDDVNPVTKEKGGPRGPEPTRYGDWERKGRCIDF
UniProt Q15906, sequence (Q15906 whole entry): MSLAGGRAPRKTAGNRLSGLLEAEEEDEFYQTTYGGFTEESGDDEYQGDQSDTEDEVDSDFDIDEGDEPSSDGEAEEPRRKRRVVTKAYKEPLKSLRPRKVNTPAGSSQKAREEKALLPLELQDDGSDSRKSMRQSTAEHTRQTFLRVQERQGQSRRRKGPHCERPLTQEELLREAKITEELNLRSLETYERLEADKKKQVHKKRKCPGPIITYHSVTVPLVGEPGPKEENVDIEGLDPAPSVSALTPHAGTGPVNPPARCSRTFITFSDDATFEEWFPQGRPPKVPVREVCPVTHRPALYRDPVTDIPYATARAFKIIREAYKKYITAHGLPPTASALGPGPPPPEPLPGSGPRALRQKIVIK

Target	thermal stability z-score (potassium arsenate)	thermal stability z-score (lipoamide; [1])	thermal stability z-score (lipoamide; arsenate co-treatment: none)
STARD7 (UniProt Q9NQZ5)	1.07	0.0874	1.42
SRSF9 (UniProt Q13242)	0.0934	2.14	0.947
DIS3L (UniProt Q8TF46)	0.0192	0.0339	0.0425
PDIA4 (UniProt P13667)	0.648	-2.99	-2.13
ZNF629 (UniProt Q9UEG4)	-0.114	0.162	-0.369
VPS72 (UniProt Q15906)	-2.49	1.96	-0.00979
KBTBD2 (UniProt Q8IY47)	-0.0698	-0.0161	-0.0919
DYNC1H1 (UniProt Q14204)	-0.164	-0.0235	0.118
TMX3 (UniProt Q96JJ7)	1.29	-0.503	-0.791
UGGT1 (UniProt Q9NYU2)	0.639	-3.22	-2.7
GCNT2 (UniProt Q8N0V5)	-0.125	0.367	-0.158
UBE2T (UniProt Q9NPD8)	-0.137	0.245	0.447
ZNF638 (UniProt Q14966)	-0.032	0.83	0.27
DDX24 (UniProt Q9GZR7)	-0.522	1.1	0.327
TMED9 (UniProt Q9BVK6)	0.151	-1.24	-1.5
BLVRB (UniProt P30043)	1.14	0.863	-0.0398
EPHA5 (UniProt P54756)	0.746	0.8	0.338
PPA2 (UniProt Q9H2U2)	-0.244	-1.03	-0.335

Target	thermal stability z-score (potassium arsenate)	thermal stability z-score (lipoamide; [1])	thermal stability z-score (lipoamide; arsenate co-treatment: none)
UROS (UniProt P10746)	-2.43	-0.306	-0.445
SDHAF4 (UniProt Q5VUM1)	-1.53	0.0401	-0.258
SAT2 (UniProt Q96F10)	0.614	0.538	0.492
HLTF (UniProt Q14527)	-0.308	-0.245	-0.0608
PRKCSH (UniProt P14314)	0.768	-2.77	-2.47
SLC7A5 (UniProt Q01650)	1.47	1.39	1.19
TRIM16 (UniProt O95361)	-0.0294	-0.0466	-0.0815
MCM2 (UniProt P49736)	-0.389	-0.75	-0.391
GNB1 (UniProt P62873)	-0.776	0.979	0.0629
LPIN2 (UniProt Q92539)	0.00612	0.528	0.214
BAG1 (UniProt Q99933)	-0.464	-0.351	0.0085
ANKRD50 (UniProt Q9ULJ7)	0.0328	-0.124	0.078
EMC1 (UniProt Q8N766)	0.695	-2.01	-1.43
PURB (UniProt Q96QR8)	0.364	0.083	0.15
MCMBP (UniProt Q9BTE3)	0.409	-0.129	-0.0734
PDHA1 (UniProt P08559)	-2.51	0.0392	0.295
SLC25A3 (UniProt Q00325)	0.572	0.802	0.951
ITPR3 (UniProt Q14573)	-0.418	-1.24	-0.526
